Laboratory results: publication PMC9967275, “Screening the Pathogen Box to Discover and Characterize New Cruzain and TbrCatL Inhibitors” (Pathogens, 2023)

Target: cruzain (Trypanosoma cruzi, UniProt P25779);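 on Cruzain 0’ Inhibition: at 5 µM compound concentration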;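 on Cruzain 10’ Inhibition: at 5 µM compound concentration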
Assay: biochemical
Conditions: 0’ (pre-incubation time); sheet "Screening results"
Procedure, shortened: (§1)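 Recombinant enzymes assayed by Z-Phe-Arg-AMC cleavage at 25 °C, fluorescence 340/440 nm over 5–7 min, with 10 min or no enzyme–compound preincubation.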

Sequence of cruzain (P25779 123-337 limits assumed): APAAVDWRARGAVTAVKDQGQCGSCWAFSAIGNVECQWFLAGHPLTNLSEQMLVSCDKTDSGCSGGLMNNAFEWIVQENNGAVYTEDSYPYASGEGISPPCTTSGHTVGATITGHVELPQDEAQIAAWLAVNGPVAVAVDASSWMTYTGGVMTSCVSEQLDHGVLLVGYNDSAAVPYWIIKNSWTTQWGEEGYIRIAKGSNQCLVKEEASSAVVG

| Compound | Cruzain 0’ Inhibition |
| --- | --- |
| COc1ccc(Cn2cnc3c(-c4ccco4)nc(Cl)nc32)cc1 [MMV687170] | 6% |
| O=C(C1CCN(c2cc(-n3cccc3)ncn2)CC1)N1CCc2ccccc2C1 [MMV687172] | -2.4% |
| CCc1ccc([C@@H]2C[C@H](C(F)(F)F)n3ncc(C(=O)NCc4ccc(OC)cc4)c3N2)cc1 [MMV687180] | -9% |
| COc1ccc2nc(C)cc(OCC(=O)Nc3ccccc3OC)c2c1 [MMV687188] | 0.8% |
| COc1ccc2nc(C)cc(OCC(=O)NCc3ccccc3)c2c1 [MMV687189] | 4.5% |
| Nc1nc2cc(-c3cncc(Oc4ccc(F)cc4)c3)ccc2[nH]1 [MMV687248] | 17% |
| Cn1c(=O)c2c(S(C)(=O)=O)snc2n(C)c1=O [MMV687251] | 12% |
| CCCCc1ccc(C(=O)Nc2nccc3ccccc23)nc1 [MMV687254] | -10% |
| CC(C)=CCC/C(C)=C\CNCCNC1C2CC3CC(C2)CC1C3 (centres unmarked) [MMV687273] | -1.6% |
| CCc1nc2ccc(Cl)cn2c1C(=O)NCc1ccc(N2CCC(c3ccc(OC(F)(F)F)cc3)CC2)cc1 [MMV687696] | 4.7% |
| O=C(NCc1cc(Cl)cc(Cl)c1)c1c(C(F)(F)F)nc2ccccn12 [MMV687699] | 3.3% |
| Nc1ncnc2c1ncn2[C@@H]1O[C@H](COS(=O)(=O)NC(=O)c2ccccc2O)[C@@H](O)[C@H]1O [MMV687700] | 3% |
| COc1cccc(-c2nc3c(N4CCCC4)cccc3n2CC2CCCN2)n1 (centres unmarked) [MMV687703] | 14% |
| c1ccc(Oc2ccc(-c3cc(N4CCNCC4)[nH]n3)cc2)cc1 [MMV687706] | 2.4% |
| O=C1O[C@@H](CO)CN1c1cc(F)c(C2=CCN(Cc3ccccc3)CC2)c(F)c1 [MMV687729] | -2% |

Same assay, conditions: 10’ (pre-incubation time); sheet "Screening results"

| Compound | Cruzain 10’ Inhibition |
| --- | --- |
| COc1ccc(Cn2cnc3c(-c4ccco4)nc(Cl)nc32)cc1 [MMV687170] | 7% |
| O=C(C1CCN(c2cc(-n3cccc3)ncn2)CC1)N1CCc2ccccc2C1 [MMV687172] | -1.9% |
| CCc1ccc([C@@H]2C[C@H](C(F)(F)F)n3ncc(C(=O)NCc4ccc(OC)cc4)c3N2)cc1 [MMV687180] | -7% |
| COc1ccc2nc(C)cc(OCC(=O)Nc3ccccc3OC)c2c1 [MMV687188] | 4.7% |
| COc1ccc2nc(C)cc(OCC(=O)NCc3ccccc3)c2c1 [MMV687189] | -1.1% |
| Nc1nc2cc(-c3cncc(Oc4ccc(F)cc4)c3)ccc2[nH]1 [MMV687248] | 19% |
| Cn1c(=O)c2c(S(C)(=O)=O)snc2n(C)c1=O [MMV687251] | 2.8% |
| CCCCc1ccc(C(=O)Nc2nccc3ccccc23)nc1 [MMV687254] | -5% |
| CC(C)=CCC/C(C)=C\CNCCNC1C2CC3CC(C2)CC1C3 (centres unmarked) [MMV687273] | 2.8% |
| CCc1nc2ccc(Cl)cn2c1C(=O)NCc1ccc(N2CCC(c3ccc(OC(F)(F)F)cc3)CC2)cc1 [MMV687696] | 1.8% |
| O=C(NCc1cc(Cl)cc(Cl)c1)c1c(C(F)(F)F)nc2ccccn12 [MMV687699] | 7% |
| Nc1ncnc2c1ncn2[C@@H]1O[C@H](COS(=O)(=O)NC(=O)c2ccccc2O)[C@@H](O)[C@H]1O [MMV687700] | 10% |
| COc1cccc(-c2nc3c(N4CCCC4)cccc3n2CC2CCCN2)n1 (centres unmarked) [MMV687703] | 11% |
| c1ccc(Oc2ccc(-c3cc(N4CCNCC4)[nH]n3)cc2)cc1 [MMV687706] | 4% |
| O=C1O[C@@H](CO)CN1c1cc(F)c(C2=CCN(Cc3ccccc3)CC2)c(F)c1 [MMV687729] | 6% |

Same assay, conditions: read-out: Cruzain 0’ Inhibition, 0’ (pre-incubation time); sheet "Screening results"

| Compound | inhibition at 5 µM |
| --- | --- |
| CCn1cnc2c(Nc3cc(F)cc(F)c3)nc(C#N)nc21 [MMV676881, reference compound] | 108% |

Same assay, conditions: read-out: Cruzain 10’ Inhibition, 10’ (pre-incubation time); sheet "Screening results"

| Compound | inhibition at 5 µM |
| --- | --- |
| CCn1cnc2c(Nc3cc(F)cc(F)c3)nc(C#N)nc21 [MMV676881, reference compound] | 108% |

Same assay, conditions: read-out: Inhibition at 5 µM (Mean ± SEM %) Cruzain 0′, 5 µM, no pre-incubation, initial screening

| Compound | inhibition at 5 µM |
| --- | --- |
| CCn1cnc2c(Nc3cc(F)cc(F)c3)nc(C#N)nc21 [MMV676881, reference compound] | 100 ± 2% |

Same assay, conditions: read-out: Inhibition at 5 µM (Mean ± SEM %) Cruzain 10′ inc, 5 µM, 10′ pre-incubation, initial screening

| Compound | inhibition at 5 µM |
| --- | --- |
| CCn1cnc2c(Nc3cc(F)cc(F)c3)nc(C#N)nc21 [MMV676881, reference compound] | 100 ± 1% |

Same assay, conditions: read-out: Inhibition of cruzain or TbrCatL (either enzyme) in the initial screening, 5 µM; either cruzain or TbrCatL, with or without pre-incubation

| Compound | inhibition at 5 µM |
| --- | --- |
| CCn1cnc2c(Nc3cc(F)cc(F)c3)nc(C#N)nc21 [MMV676881, reference compound] | ≥ 60% |

Target: T1, TbrCatL (Trypanosoma brucei rhodesiense, UniProt Q95PM0)
T1 construct: Conor Caffrey (University of California San Diego)
Assay: TbrCatL enzymatic inhibition assay (cleavage of fluorogenic substrate Z-FR-AMC);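 on TbrCatL 0’ Inhibition: at 5 µM compound concentration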;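 on TbrCatL 10’ Inhibition: at 5 µM compound concentration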
Format: biochemical
Conditions: 0’ (pre-incubation time); sheet "Screening results"
Procedure, shortened: as §1

T1 sequence (Q95PM0 entry or part of it): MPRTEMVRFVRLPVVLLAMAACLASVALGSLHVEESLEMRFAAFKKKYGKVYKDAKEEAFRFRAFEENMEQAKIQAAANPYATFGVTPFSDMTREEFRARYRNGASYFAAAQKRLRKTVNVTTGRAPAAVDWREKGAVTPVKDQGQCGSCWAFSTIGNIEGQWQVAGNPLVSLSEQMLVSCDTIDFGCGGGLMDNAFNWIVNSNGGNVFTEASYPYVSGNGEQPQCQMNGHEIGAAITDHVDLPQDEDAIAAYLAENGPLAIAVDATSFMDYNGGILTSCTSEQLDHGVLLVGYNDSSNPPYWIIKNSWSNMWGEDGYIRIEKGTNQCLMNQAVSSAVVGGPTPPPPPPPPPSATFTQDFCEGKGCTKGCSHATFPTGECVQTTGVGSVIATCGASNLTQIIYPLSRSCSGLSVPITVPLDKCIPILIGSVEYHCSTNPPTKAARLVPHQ

| Compound | TbrCatL 0’ Inhibition |
| --- | --- |
| COc1ccc(Cn2cnc3c(-c4ccco4)nc(Cl)nc32)cc1 [MMV687170] | 15% |
| O=C(C1CCN(c2cc(-n3cccc3)ncn2)CC1)N1CCc2ccccc2C1 [MMV687172] | 0.3% |
| CCc1ccc([C@@H]2C[C@H](C(F)(F)F)n3ncc(C(=O)NCc4ccc(OC)cc4)c3N2)cc1 [MMV687180] | -4.3% |
| COc1ccc2nc(C)cc(OCC(=O)Nc3ccccc3OC)c2c1 [MMV687188] | -0.5% |
| COc1ccc2nc(C)cc(OCC(=O)NCc3ccccc3)c2c1 [MMV687189] | 2.6% |
| Nc1nc2cc(-c3cncc(Oc4ccc(F)cc4)c3)ccc2[nH]1 [MMV687248] | -0.7% |
| Cn1c(=O)c2c(S(C)(=O)=O)snc2n(C)c1=O [MMV687251] | 2.7% |
| CCCCc1ccc(C(=O)Nc2nccc3ccccc23)nc1 [MMV687254] | -7% |
| CC(C)=CCC/C(C)=C\CNCCNC1C2CC3CC(C2)CC1C3 (centres unmarked) [MMV687273] | -3.2% |
| CCc1nc2ccc(Cl)cn2c1C(=O)NCc1ccc(N2CCC(c3ccc(OC(F)(F)F)cc3)CC2)cc1 [MMV687696] | -4.5% |
| O=C(NCc1cc(Cl)cc(Cl)c1)c1c(C(F)(F)F)nc2ccccn12 [MMV687699] | -1.6% |
| Nc1ncnc2c1ncn2[C@@H]1O[C@H](COS(=O)(=O)NC(=O)c2ccccc2O)[C@@H](O)[C@H]1O [MMV687700] | 3% |
| COc1cccc(-c2nc3c(N4CCCC4)cccc3n2CC2CCCN2)n1 (centres unmarked) [MMV687703] | 26% |
| c1ccc(Oc2ccc(-c3cc(N4CCNCC4)[nH]n3)cc2)cc1 [MMV687706] | -6% |
| O=C1O[C@@H](CO)CN1c1cc(F)c(C2=CCN(Cc3ccccc3)CC2)c(F)c1 [MMV687729] | -0.7% |

Same assay, conditions: 5 µM, 10′ pre-incubation, initial screening

| Compound | Inhibition at 5 µM (Mean ± SEM %) TbrCatL 10′ inc |
| --- | --- |
| CCn1cnc2c(Nc3cc(F)cc(F)c3)nc(C#N)nc21 [MMV676881, reference compound] | fully inhibited |

Same assay, conditions: 5 µM, no pre-incubation, initial screening

| Compound | Inhibition at 5 µM (Mean ± SEM %) TbrCatL 0′ |
| --- | --- |
| CCn1cnc2c(Nc3cc(F)cc(F)c3)nc(C#N)nc21 [MMV676881, reference compound] | fully inhibited |

Same assay, conditions: 10’ (pre-incubation time); sheet "Screening results"

| Compound | TbrCatL 10’ Inhibition |
| --- | --- |
| COc1ccc(Cn2cnc3c(-c4ccco4)nc(Cl)nc32)cc1 [MMV687170] | 3.4% |
| O=C(C1CCN(c2cc(-n3cccc3)ncn2)CC1)N1CCc2ccccc2C1 [MMV687172] | 15% |
| CCc1ccc([C@@H]2C[C@H](C(F)(F)F)n3ncc(C(=O)NCc4ccc(OC)cc4)c3N2)cc1 [MMV687180] | -11% |
| COc1ccc2nc(C)cc(OCC(=O)Nc3ccccc3OC)c2c1 [MMV687188] | 3% |
| COc1ccc2nc(C)cc(OCC(=O)NCc3ccccc3)c2c1 [MMV687189] | 5% |
| Nc1nc2cc(-c3cncc(Oc4ccc(F)cc4)c3)ccc2[nH]1 [MMV687248] | 17% |
| Cn1c(=O)c2c(S(C)(=O)=O)snc2n(C)c1=O [MMV687251] | 0.4% |
| CCCCc1ccc(C(=O)Nc2nccc3ccccc23)nc1 [MMV687254] | -2.6% |
| CC(C)=CCC/C(C)=C\CNCCNC1C2CC3CC(C2)CC1C3 (centres unmarked) [MMV687273] | -4.3% |
| CCc1nc2ccc(Cl)cn2c1C(=O)NCc1ccc(N2CCC(c3ccc(OC(F)(F)F)cc3)CC2)cc1 [MMV687696] | -3.6% |
| O=C(NCc1cc(Cl)cc(Cl)c1)c1c(C(F)(F)F)nc2ccccn12 [MMV687699] | -6% |
| Nc1ncnc2c1ncn2[C@@H]1O[C@H](COS(=O)(=O)NC(=O)c2ccccc2O)[C@@H](O)[C@H]1O [MMV687700] | 17% |
| COc1cccc(-c2nc3c(N4CCCC4)cccc3n2CC2CCCN2)n1 (centres unmarked) [MMV687703] | 16% |
| c1ccc(Oc2ccc(-c3cc(N4CCNCC4)[nH]n3)cc2)cc1 [MMV687706] | 23% |
| O=C1O[C@@H](CO)CN1c1cc(F)c(C2=CCN(Cc3ccccc3)CC2)c(F)c1 [MMV687729] | -6.5% |

Same assay, conditions: read-out: Inhibition at 5 µM (Mean ± SEM %) TbrCatL 0′

| Compound | inhibition at 5 µM |
| --- | --- |
| CCn1cnc2c(Nc3cc(F)cc(F)c3)nc(C#N)nc21 [MMV676881, reference compound] | 100% |

Same assay, conditions: read-out: Inhibition at 5 µM (Mean ± SEM %) TbrCatL 10′ inc

| Compound | inhibition at 5 µM |
| --- | --- |
| CCn1cnc2c(Nc3cc(F)cc(F)c3)nc(C#N)nc21 [MMV676881, reference compound] | 100 ± 2% |

Same assay, conditions: read-out: TbrCatL 0’ Inhibition

| Compound | inhibition at 5 µM |
| --- | --- |
| CCn1cnc2c(Nc3cc(F)cc(F)c3)nc(C#N)nc21 [MMV676881, reference compound] | 104% |

Same assay, conditions: read-out: TbrCatL 10’ Inhibition

| Compound | inhibition at 5 µM |
| --- | --- |
| CCn1cnc2c(Nc3cc(F)cc(F)c3)nc(C#N)nc21 [MMV676881, reference compound] | 103% |
